These are literature values, as cited in PubChem BioAssay AID1259409 (Chemical Carcinogenesis Research Information System (CCRIS), 2018).

This data set concerns rodent chemically induced tumor inhibition, incidence and multiplicity. Put plainly: CCRIS tumor inhibitor studies. Conditions: Promoter: NONE USED.

Several values for one entry are separate records, joined by “and”; a condition that tells them apart may be missing. Equal entries are not always repeated.

Take `CC1=C(/C=C/C(C)=C/C=C/C(C)=C/C=C/C=C(C)/C=C/C=C(C)/C=C/C2=C(C)CCCC2(C)C)C(C)(C)CCC1`: under “Carcinogen: N-METHYL-N'-NITRO-N-NITROSOGUANIDINE, 70-25-7, Dose [Inhibitor]: 0, 0.4% IN DIET FOR 2 WK PRIOR TO FIRST CARCINOGEN DOSE FOLLOWED BY 0, 0.2% IN DIET FOR 52 WK (STUDY DURATION: 54 WK), Dose [Inhibitor]: 0, 0.4% IN DIET FOR 2 WK PRIOR TO FIRST CARCINOGEN DOSE FOLLOWED BY 0, 0.2% IN DIET FOR 52 WK (STUDY DURATION: 54 WK), Route [Inhibitor]: ORAL, Species: RAT, Strain/Sex: WISTAR/MALE, Target Tissue: Type of Lesion: SMALL INTESTINE: FIBROSARCOMA, Dose [Carcinogen]: 80 UG/ML IN DRINKING WATER FOR 52 WK”, the outcome is given as 0/36 (0%), 1/35 (3%), -300%, not calculated. Also, the “tumour outcome (control, treated, inhibition, significance)” value is reported as 1/36 (3%), 0/35 (0%), 100%, not calculated (Carcinogen: N-METHYL-N'-NITRO-N-NITROSOGUANIDINE, 70-25-7, Dose [Inhibitor]: 0, 0.4% IN DIET FOR 2 WK PRIOR TO FIRST CARCINOGEN DOSE FOLLOWED BY 0, 0.2% IN DIET FOR 52 WK (STUDY DURATION: 54 WK), Dose [Inhibitor]: 0, 0.4% IN DIET FOR 2 WK PRIOR TO FIRST CARCINOGEN DOSE FOLLOWED BY 0, 0.2% IN DIET FOR 52 WK (STUDY DURATION: 54 WK), Route [Inhibitor]: ORAL, Species: RAT, Strain/Sex: WISTAR/MALE, Target Tissue: Type of Lesion: SMALL INTESTINE: LEIOMYOMA, Dose [Carcinogen]: 80 UG/ML IN DRINKING WATER FOR 52 WK); 100%, 100%, 0%, not significant (Carcinogen: NONE USED, Dose [Inhibitor]: 0, 0.005% IN DRINKING WATER AD LIBITUM FOR 40 WK (STUDY DURATION: 40 WK), Route [Inhibitor]: ORAL, Species: MOUSE, Strain/Sex: C3H/HE/MALE, Target Tissue: Type of Lesion: LIVER: TUMOR); 16/16 (100%), 16/16 (100%), 0%, not significant (Carcinogen: NONE USED, Dose [Inhibitor]: 0, 0.005% IN DRINKING WATER FOR 40 WK (STUDY DURATION: 40 WK), Route [Inhibitor]: ORAL, Species: MOUSE, Strain/Sex: C3H/HE/MALE, Target Tissue: Type of Lesion: LIVER: TUMORS); 100%, 100%, 0%, not significant (Carcinogen: NONE USED, Dose [Inhibitor]: 0, 0.05% IN DRINKING WATER AD LIBITUM FOR 40 WK (STUDY DURATION: 40 WK), Route [Inhibitor]: ORAL, Species: MOUSE, Strain/Sex: C3H/HE/MALE, Target Tissue: Type of Lesion: LIVER: TUMOR); 16/16 (100%), 17/17 (100%), 0%, not significant (Carcinogen: NONE USED, Dose [Inhibitor]: 0, 0.05% IN DRINKING WATER FOR 40 WK (STUDY DURATION: 40 WK), Route [Inhibitor]: ORAL, Species: MOUSE, Strain/Sex: C3H/HE/MALE, Target Tissue: Type of Lesion: LIVER: TUMORS); 12/20 (60%), 4/19 (21%), 65%, not calculated (Carcinogen: NONE USED, Dose [Inhibitor]: 0, 2.5 MG/D IN DRINKING WATER FROM 8 MO OF AGE (STUDY DURATION: 15 MO), Route [Inhibitor]: ORAL, Species: MOUSE, Strain/Sex: C3H/FEMALE, Target Tissue: Type of Lesion: MAMMARY GLAND: TUMOR). Besides, the “tumour outcome (control, treated, inhibition, significance)” value by setting is: (Carcinogen: UV-B IRRADIATION (HANOVIA QUARTZ CONTACT LAMP IN 290-320 NM RANGE), Dose [Inhibitor]: 0.4 ML OF BEADLET SOLUTION CONTAINING 0.1 G/4 ML 3/WK FOR 1 MO FOLLOWED BY 0.2 ML OF BEADLET SOLUTION CONTAINING 0.1 G/4, Route [Inhibitor]: INTRAPERITONEAL, Species: MOUSE, Strain/Sex: ALBINO, Target Tissue: Type of Lesion: SKIN: SQUAMOUS CELL CARCINOMA, Dose [Carcinogen]: 6.5 KJ/SQ M 3/WK FOR 15 MO BEGINNING 1 MO POST AGENT DOSE) 14/21 (67%), 6/20 (25%), 63%, p=0.0189 and 14/21 (67%), 5/18 (28%), 58%, p=0.0154; (Carcinogen: UV-B IRRADIATION (WESTINGHOUSE FS-20 SUNLAMP 55% IN 290-320 NM RANGE), Dose [Inhibitor]: 3.3 G/100 G OF PELLETIZED FEED BEGINNING 10 WK PRIOR TO CARCINOGEN DOSE TO 24 WK POST CARCINOGEN DOSE (STUDY DURATION: 3, Route [Inhibitor]: ORAL, Species: MOUSE, Strain/Sex: SKH, Target Tissue: Type of Lesion: SKIN: TUMOR, Dose [Carcinogen]: 80 KJ/SQ M TOTAL ENERGY DURING A 220 MINUTE SINGLE EXPOSURE) 4/9 (44%), 2/7 (29%), 34%, not significant; (Carcinogen: UVB IRRADIATION, Dose [Inhibitor]: 0, 1% IN DIET FOR DURATION OF STUDY BEGINNING 3 WK PRIOR TO IRRADIATION (STUDY DURATION: 33 WK), Route [Inhibitor]: ORAL, Species: MOUSE, Strain/Sex: C3H/HEN/FEMALE, Target Tissue: Type of Lesion: SKIN: TUMOR, Dose [Carcinogen]: 6 J/M2/SEC 30 MIN/D, 5 D/WK FOR 27 WK) 81%, 67%, 17%, not significant.
